Key:
S. aureus ATCC 29213 [1] = experiment: Flow cytometry, PI; type: cell-based, Staphylococcus aureus; settings: 16 × 10^−6 M N4, 1 h, control 1.23%
Experimental: The bacterial samples were incubated with N4 for 1 h and then incubated with the PI dye (at a final concentration of 10 µg mL^−1) for a further 15 min. Finally, bacteria containing PI dye were detected by FACScan flow cytometer at 488 nm excitation wavelength, bacterial solutions (containing PI dye) without N4 treatment were used as controls.

ICR female mice = experiment: In vivo toxicity of N4; set-up: species or system mouse
Experimental: Animal experiments were conducted in accordance with the Guide for the Care and Use of Laboratory Animals at Northeast Agricultural University (NEAU‐[2011]‐9). The experimental subjects comprised female ICR mice, aged 6 to 8 weeks and weighing 19 ± 1.1 g, sourced from Liaoning Changsheng Biotechnology Co. Thirty‐two mice were randomly divided into four groups after a 3‐day pre‐feeding period, followed by intraperitoneal injections of N4 at different doses (5, 10, and 20 mg kg^−1) to assess its toxicity, with saline treatment serving as the control group. Following injection, behavioral alterations were observed over a brief duration (0.5, 1, 4, and 8 h), and then body weight changes were monitored for 3 days. On the third day, the mice were euthanized via ether inhalation anesthesia, and blood samples were collected from the orbital vein for biochemical analysis, which was used to determine the levels of ALT, ALP, BUN, CREA, and TBIL. Subsequently, the liver, spleen, and kidneys were taken to determine organ coefficients. The relative organ weights were calculated using the formula: relative organ weight (%) = (organ weight/mouse body weight) × 100%. These organs were then fixed in 4% paraformaldehyde, following established protocols, for subsequent histological examination.^[ [70] ^]

E. coli ATCC 25922 [2] = experiment: Time-kill kinetics; type: cell-based, Escherichia coli; settings: 1 × MIC, PBS pH 7.4; n = 3
Experimental: (§1) Samples were collected at pre‐determined time points post‐exposure, serially diluted, and plated on Mueller‐Hinton agar (MHA) for viable colony counting after 18–24 h incubation at 37 °C. Untreated bacterial suspensions served as controls.

ThT fluorescence assay = type: physicochemical; settings: 16 × 10^−6 M N4, ThT 40 × 10^−6 M, deionized water, 20 min, 37 °C
Experimental: The fluorescent dye was used for fluorescence measurements and imaging of N4. ^[ [48] ^] […] An equal volume of ThT solution was added to each well (final concentration: 40 × 10^−6 M), with ThT in deionized water serving as the control. After 20 min incubation at 37 °C, fluorescence intensity was measured using a microplate reader (excitation λ = 450 nm, emission λ = 480 nm). N4 was stained with 40 × 10^−6 M ThT for 30 min and observed by imaging using a fluorescence microscope.

in vitro = settings: female, ICR, mouse, serum
Experimental: N4 was incubated with serum isolated from mice for different durations (0, 1, 2, 4, 8, 12 h), followed by RP‐HPLC analyses to determine the retention rate.^[ [48] ^]

S. aureus ATCC 29213 [3] = experiment: Time-kill kinetics; type: cell-based, Staphylococcus aureus; settings: PBS pH 7.4, n = 3
Experimental: as §1

S. aureus ATCC 29213 [4] = experiment: Drug resistance assay, 30 serial passages; type: cell-based, Staphylococcus aureus; settings: S. aureus ATCC 29213, 30 successive passages at sub-MIC concentrations; gentamicin by day 17
Experimental: The potential resistance development of nano‐short peptides was evaluated through 30 serial passages of E. coli ATCC 25922 and S. aureus ATCC 29213 in sub‐MIC conditions,^[ [38] ^] using gentamicin as control.

E. coli ATCC 25922 [5] = experiment: Intracellular ATP determination; type: cell-based, Escherichia coli; settings: 16 × 10^−6 M, E. coli ATCC 25922, 1 h, 37 °C; n = 3
Experimental: The intracellular ATP levels of E. coli ATCC 25922 and S. aureus ATCC 29213 after nano‐short peptides treatment were detected using an Enhanced ATP Assay Kit.^[ [59] ^] Logarithmic growth stage E. coli ATCC 25922 and S. aureus ATCC 29213 bacterial solutions were diluted to OD600 = 0.4 in MHB liquid medium. Then, the bacterial dilutions were co‐incubated with different concentrations of nano‐short peptides at 37 °C for 1 h. After incubation, the bacterial dilutions were centrifuged (12 000 rpm, 5 min, 4 °C) to pellet the cells. The resulting bacterial pellets were processed according to the steps in the kit. Finally, the chemiluminescence was detected by a microplate reader.

[6] = tested on: clinically isolated strains; experiment: MIC against clinically isolated strains (panel); type: cell-based; settings: all four clinical strains of Figure 4G
Experimental: The MIC values of the nano‐short peptides were determined according to standard protocols.^[ [63] ^] Bacterial strains were revived from cryopreservation and cultured in Mueller–Hinton broth (MHB) to logarithmic growth phase, then diluted to a final density of 0.5–1 × 10⁶ CFU mL^−1. Serial dilutions of the nano‐short peptides were prepared in 0.2% bovine serum albumin (BSA) using a 96‐well plate format. Equal volumes of peptide solutions and bacterial suspensions were combined and incubated at 37 °C for 20–22 h. Bacterial growth was assessed by measuring absorbance at 492 nm, with MHB alone (negative control) and untreated bacterial suspension (positive control) included for reference.

E. coli ATCC 25922 [7] = experiment: Live/dead staining, PI and SYTO 9; type: cell-based, Escherichia coli
From the text: Finally, a fluorescence microscope (EVOS FL Auto, Massachusetts, USA) was used to observe the fluorescence images of the bacteria under different background colors and representative pictures were taken.

[8] = 5, 10, 20 mg kg^−1 intraperitoneal, day 3, p > 0.05, n = 8

**Q.** Which PI-positive proportion (S. aureus ATCC 29213 [1]) does the source give for N=C(N)NCCC[C@H](NC(=O)[C@@H](CCCNC(=N)N)NC(=O)[C@H](Cc1cccc2ccccc12)NC(=O)[C@H](Cc1cccc2ccccc12)NC(=O)[C@H](Cc1cccc2ccccc12)NC(=O)[C@@H](N)Cc1cccc2ccccc12)C(=O)N[C@@H](CCCNC(=N)N)C(=O)N1CCC[C@H]1C(=O)O (stereo in doubt) [Peptide N4] here?
**A.** 36.7%

**Q.** And the clinical signs (ICR female mice; 20 mg kg^−1 intraperitoneal, ICR female mice, only two mice, within 1 h, n = 8)?
**A.** mild and transient symptoms

**Q.** What about the “body weight vs control group” value (ICR female mice; 5, 10, 20 mg kg^−1 intraperitoneal, 3 days, p > 0.05, n = 8) of the same compound?
**A.** no significant differences

**Q.** And the “histopathology of liver, spleen, kidney (H&E)” value (ICR female mice; 5, 10, 20 mg kg^−1 intraperitoneal, day 3)?
**A.** did not inflict histopathological damage

**Q.** What about the “levels of ALT, ALP, BUN, CREA and TBIL vs control group” value (ICR female mice; [8]) of the same compound?
**A.** no significant differences

**Q.** What about the “relative weights of the liver, spleen, and kidney” value (ICR female mice; [8]) of the same compound?
**A.** remained comparable

**Q.** And the “time to eliminate all E. coli ATCC 25922 cells” value (E. coli ATCC 25922 [2])?
**A.** ≤ 1500 s

**Q.** And the ThT fluorescence intensity (ThT fluorescence assay)?
**A.** significant increase

**Q.** And the remaining at 4 h (in vitro)?
**A.** > 50%

**Q.** What about the remaining at 12 h (in vitro) of the same compound?
**A.** 8.1%

**Q.** And the “time to eliminate all S. aureus ATCC 29213 cells” value (S. aureus ATCC 29213 [3]; 1 × MIC)?
**A.** ≤ 3000 s

**Q.** And the “time to eliminate all S. aureus ATCC 29213 cells” value (S. aureus ATCC 29213 [3]; 4 × MIC)?
**A.** ≤ 1200 s

**Q.** What about the “increase in MIC values after serial passage” value (S. aureus ATCC 29213 [4]) of the same compound?
**A.** remained largely unchanged

**Q.** What about the “ATP levels decreased to” value (E. coli ATCC 25922 [5]) of the same compound?
**A.** 66.07%

**Q.** What about the “MIC values against clinically isolated strains” value [6] of the same compound?
**A.** ≤ 16 µM

**Q.** And the “red (PI)/green (SYTO 9) fluorescence overlap rate” value (E. coli ATCC 25922 [7]; 16 × 10^−6 M N4, E. coli ATCC 25922, ImageJ)?
**A.** 79.11%

**Q.** And the “red (PI)/green (SYTO 9) fluorescence overlap rate” value (E. coli ATCC 25922 [7]; 256 × 10^−6 M N4, E. coli ATCC 25922, ImageJ)?
**A.** 99.29%

Reference: paper PMC12677699, “Utilizing Proteolytic‐Resistant Nano‐Short Peptide Based on Naphthyl Tail‐Anchored to Combat Bacterial Infections” (Advanced Science, 2025)
